Experimental data from patent publication US20220047616A1, “Method and Compositions for Treating HTLV-1 Virus Infection” (priority 2019, published 2022).

Columns and labels:
HEP C = conditions: reported; cited from earlier work
HCV H strain NS5B = HCV H strain NS5B (Hepatitis C virus genotype 1a, UniProt P27958); conditions: reported; cited from earlier work
HIV-1 [1] = conditions: reported; cited from earlier work
ADV-8 = conditions: reported; cited from earlier work
HSV-2 = conditions: reported; cited from earlier work
HEP B = conditions: reported; cited from earlier work
ENTV CVB1 = conditions: reported; cited from earlier work
ADV-11 = conditions: reported; cited from earlier work
ADV-3 = conditions: reported; cited from earlier work
HSV-1 = conditions: reported; cited from earlier work
ENTV EV71 = conditions: reported; cited from earlier work
Dengue virus = conditions: Cheung et al. 2014; cited from earlier work
[2] = tested on: DENV2 (08-10381 Montserrat strain); assay: Protection of DENV2-induced cytopathic effect (CPE) with Neutral Red readout; format: cell-based, Dengue virus; conditions: CPE-based assay, Vero cells, 7 days
Description: (§1) A CPE-based antiviral assay was performed by infecting target cells in the presence or absence of test compositions, at a range of concentrations. […] cytopathic effects and cell death. […] For CPE-based assays, cell viability was determined with a neutral red readout. Viable cells incorporate neutral red in their lysosomes. Uptake of neutral red relies on the ability of live cells to maintain a lower pH inside their lysosomes than in the cytoplasm, and this active process requires ATP. Once inside the lysosome, the neutral red dye becomes charged and is retained intracellularly. […] The amount of neutral red in solution was quantified by reading the absorbance (optical density) of each well at 490 nm […]
(§2) Cytotoxic effects were evaluated in uninfected cells by comparing viability in the presence of inhibitors to the viability of mock-treated cells. Cytotoxicity was determined by an XTT viability assay, which was conducted at the same timepoint as the readout for the corresponding infection assay.
(§3) Test compositions were dissolved in 100% methanol. […] When possible, the EC50 and CC50 of the composition was determined for each assay using GraphPad Prism software. […]
Protection of DENV2-induced cytopathic effect (CPE) with Neutral Red readout: For the DENV2 antiviral assay, the 08-10381 Montserrat strain was used. […]

rhinovirus = assay: Antiviral activity against rhinovirus infection; conditions: concentrations and assays employed herein
[3] = tested on: HTLV-1+ SLB1 lymphoma T-cell-line; assay: Cytotoxicity/apoptosis in HTLV-1+ SLB1 lymphoma T-cells (Annexin V-FITC/PI); conditions: 72 hrs
HTLV-1 [4] = assay: HTLV-1 transmission in SLB1/huPBMC co-culture (p19Gag ELISA); format: cell-based; conditions: SLB1 pre-treated 15 min or 3 hrs, co-culture 72 hrs
HTLV-1 [5] = assay: Virological synapse formation and HTLV-1 transmission in co-culture (fluorescence microscopy, gp21-positive huPBMCs); format: cell-based; conditions: SLB1/pLenti-GFP pre-treated 3 hrs, 10, 50, 100 μg/ml
Marburgvirus (MARV/Ci67) = format: cell-based; conditions: compositions added to cells, then virus, 1 hr; FIGS. 3-4
HTLV-1 [6] = assay: HTLV-1 replication and release of p19Gag-containing particles from SLB1 cells (Anti-HTLV-1 p19Gag ELISA); format: cell-based; conditions: SLB1 cells, 10, 50, 100 μg/ml, 72 hrs
HIV-1 [7] = conditions: cited from earlier work
ZIKV (PLCal_ZV strain) = assay: Protection of ZIKV-induced cytopathic effect (CPE) with Neutral Red readout; format: cell-based, Zikavirus; conditions: CPE-based assay, Vero cells, 6 days
Description: as §1, §2, §3
Protection of ZIKV-induced cytopathic effect (CPE) with Neutral Red readout: For the ZIKV antiviral assay, the PLCal_ZV strain was used. […]

HTLV-1 [8] = assay: Infectivity of HTLV-1 particles from treated SLB1 cells on primary huPBMCs (p19Gag ELISA); format: cell-based; conditions: lowest concentration 10 μg/ml, relative to vehicle control
Ebolavirus (EBOV/Kik) = format: cell-based; conditions: compositions added to cells, then virus, 1 hr; FIGS. 1-2

HCV H strain NS5B, sequence (P27958 2421-3011): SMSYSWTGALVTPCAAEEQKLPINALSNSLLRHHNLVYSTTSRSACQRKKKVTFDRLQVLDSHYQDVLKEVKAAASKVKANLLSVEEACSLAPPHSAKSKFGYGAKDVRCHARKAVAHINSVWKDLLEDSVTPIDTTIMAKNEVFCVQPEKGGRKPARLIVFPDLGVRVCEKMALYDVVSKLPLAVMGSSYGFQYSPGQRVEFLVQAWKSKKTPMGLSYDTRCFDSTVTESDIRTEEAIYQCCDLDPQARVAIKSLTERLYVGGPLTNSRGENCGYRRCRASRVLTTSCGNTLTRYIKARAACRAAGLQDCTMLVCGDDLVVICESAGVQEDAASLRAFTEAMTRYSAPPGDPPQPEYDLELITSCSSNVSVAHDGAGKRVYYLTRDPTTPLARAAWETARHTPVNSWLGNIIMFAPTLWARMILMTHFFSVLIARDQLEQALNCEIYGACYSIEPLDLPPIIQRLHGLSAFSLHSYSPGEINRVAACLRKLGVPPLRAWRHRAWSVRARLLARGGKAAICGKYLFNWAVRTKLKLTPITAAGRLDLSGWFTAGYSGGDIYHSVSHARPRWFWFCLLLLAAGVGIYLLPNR

SMILES: CC1(C)CC[C@]2(C(=O)O)CC[C@]3(C)C(=CC[C@@H]4[C@@]5(C)CC[C@H](O)C(C)(C)[C@@H]5CC[C@]43C)[C@@H]2C1 [Oleanolic acid, oleanolic acid]
- anti-viral activity against HEP C (HEP C): some anti-viral activity
- anti-viral activity against HCV H strain NS5B (HCV H strain NS5B): some anti-viral activity
- anti-viral activity against HIV-1 (HIV-1 [1]): some anti-viral activity

SMILES: C[C@H]1[C@H](C)CC[C@]2(C(=O)O)CC[C@]3(C)C(=CC[C@@H]4[C@@]5(C)CC[C@H](O)C(C)(C)[C@@H]5CC[C@]43C)[C@H]12 [Ursolic acid, ursolic acid]
- anti-viral activity against ADV-8 (ADV-8): some anti-viral activity
- anti-viral activity against HEP C (HEP C): some anti-viral activity
- anti-viral activity against HSV-2 (HSV-2): some anti-viral activity
- anti-viral activity against HCV H strain NS5B (HCV H strain NS5B): some anti-viral activity
- anti-viral activity against HEP B (HEP B): some anti-viral activity
- anti-viral activity against ENTV CVB1 (ENTV CVB1): some anti-viral activity
- anti-viral activity against ADV-11 (ADV-11): some anti-viral activity
- anti-viral activity against HIV-1 (HIV-1 [1]): some anti-viral activity
- anti-viral activity against ADV-3 (ADV-3): some anti-viral activity
- anti-viral activity against HSV-1 (HSV-1): some anti-viral activity
- anti-viral activity against ENTV EV71 (ENTV EV71): some anti-viral activity

SMILES: C[C@H]1O[C@@H](O[C@H]2[C@@H](O)C[C@H](O[C@H]3[C@@H](O)C[C@H](O[C@H]4CC[C@@]5(C)[C@H](CC[C@@H]6[C@@H]5C[C@@H](O)[C@]5(C)[C@@H](C7=CC(=O)OC7)CC[C@]65O)C4)O[C@@H]3C)O[C@@H]2C)C[C@H](O)[C@@H]1O [digoxin, reference compound]
- cellular viability of Vero E6 cells (Vero E6 cells): did not reduce cellular viability

SMILES: CC(=O)O[C@H]1C[C@H](O[C@H]2[C@@H](O)C[C@H](O[C@H]3[C@@H](O)C[C@H](O[C@H]4CC[C@@]5(C)[C@H](CC[C@@H]6[C@@H]5C[C@@H](O)[C@]5(C)[C@@H](C7=CC(=O)OC7)CC[C@]65O)C4)O[C@@H]3C)O[C@@H]2C)O[C@H](C)[C@H]1O[C@@H]1O[C@H](CO)[C@@H](O)[C@H](O)[C@H]1O [lanatoside C]
- antiviral activity against Dengue virus (Dengue virus): demonstrates antiviral activity

SMILES: CO[C@H]1C[C@H](O[C@H]2CC[C@@]3(C)[C@H](CC[C@@H]4[C@@H]3CC[C@]3(C)[C@@H](C5=CC(=O)OC5)[C@@H](OC(C)=O)C[C@]43O)C2)O[C@@H](C)[C@@H]1O [oleandrin]
- efficacy against Dengue virus [2]: demonstrates efficacy
- activity against rhinovirus (viral replication) (rhinovirus): inactive
- cytotoxicity/apoptosis in SLB1 cells at the lowest concentration ([3]; 10 μg/ml): did not induce significant cytotoxicity/apoptosis
- cytotoxicity in SLB1 cells compared with Vehicle control [3]: not significantly higher than the Vehicle control
- transmission of HTLV-1 in co-culture (extracellular p19Gag) (HTLV-1 [4]): inhibited the transmission of HTLV-1 as compared to the vehicle control
- formation of virological synapses and transmission of HTLV-1 (HTLV-1 [5]): inhibited the formation of virological synapses and the transmission of HTLV-1 in vitro
- cellular viability of Vero E6 cells (Vero E6 cells): did not reduce cellular viability
- efficacy against Marburgvirus (dose response, based on oleandrin content) (Marburgvirus (MARV/Ci67)): efficacious
- HTLV-1 replication / release of p19Gag-containing virus particles (HTLV-1 [6]): does not significantly inhibit
- HIV-1 viral infectivity in vitro (HIV-1 [7]): inhibit viral infectivity in vitro
- incorporation of gp120 envelope glycoprotein of HIV-1 into mature virus particles (HIV-1 [7]): prevent the incorporation
- anti-viral activity against HIV-1 (HIV-1 [1]): demonstrated anti-HIV activity
- efficacy against Zikavirus (ZIKV (PLCal_ZV strain)): demonstrates efficacy
- infectivity of newly-synthesized p19Gag-containing virus particles on huPBMCs (HTLV-1 [8]): inhibited the infectivity
- efficacy against Ebolavirus (dose response, based on oleandrin content) (Ebolavirus (EBOV/Kik)): efficacious
